Data as given in PMC7870075, “Physicochemical properties and formulation development of a novel compound inhibiting Staphylococcus aureus biofilm formation” (PLoS ONE, 2021).
In brackets after ≈: the same amount, converted by molar mass. Where two headings read alike, the source gives them in different places. Marks after values point to notes of the source that are not given here.

Tests used:
[1] = Effect of pH on CCG-211790 degradation; format: physicochemical; conditions: for CCG-211790 concentration: 37°C; for chemical stability: twelve weeks
Procedure: The concentration of CCG-211790 in deionized water or aqueous solutions was determined using an Agilent series 1100 HPLC system (Agilent Technologies, Santa Clara, CA, USA) equipped with diode array detector. Sample separation was carried out with a Kinetex C18 column (75 mm × 3 mm, particle size 2.6 μm, Phenomenex Inc., Torrance, CA, USA). The mobile phase of acetonitrile-water (50:50, v/v) was used for chromatographic separation. The flow rate was set to 0.5 mL/min, column temperature to 35°C. The absorption was measured at wavelength 255 nm. The injection volume was 30 μL. The retention time of CCG-211790 was 4.9 min. The method detection limit was 0.02 mg/L. Calibration curves were established giving a correlation coefficient >0.9900. Effect of pH on CCG-211790 degradation was investigated at indicated pH (1–10) over a period of three months. Briefly, pH 1, 2 or 10 were achieved by dissolving CCG-211790 bulk powder in a mixture of acetonitrile and water (25:75, v/v) with the pH being adjusted with hydrochloride acid solution (12 mole/L) or sodium hydroxide solution (15 mole/L). Similarly, pH 3–9 were achieved by dissolving CCG-211790 powder in a mixture of acetonitrile and PBS (25:75, v/v) with the pH also being adjusted with the hydrochloride acid solution or the sodium hydroxide solution. All samples were incubated at 37°C. CCG-211790 concentrations in the mixture solutions were determined via HPLC analysis at predetermined time points (0, 2, 4 and 12 weeks).

[2] = Solubility in organic solvents; format: physicochemical; conditions: thermodynamic from solid
Procedure: The concentration of CCG-211790 in organic solvents was carried out on a LabTech BlueStar plus UV-Vis spectrophotometer (Hopkinton, MA, USA) using dimethylformamide (DMF) as a reference solvent. UV-Vis absorption spectra were recorded in a wavelength range from 200–500 nm with samples placed in a quartz cuvette. CCG-211790 concentrations in organic solvents were determined based on the absorption of CCG-211790 at characteristic wavelength of 314 nm. Calibration curves were established giving a correlation coefficient more than 0.999. The solubility of CCG-211790 in organic solvents were also determined. CCG-211790 bulk powder was added in excess to 0.1–1 mL of an organic solvent. After ultrasonication for 30 min and incubation for 24 h at room temperature on a shaking platform to reach the saturation status, sample aliquots (0.5 mL) were centrifuged at 10,400 ×g for 10 min, and 10 μL of supernatant was diluted 500–50,000-fold with dimethylformamide (DMF). The saturation solubility of CCG-211790 in various organic solvents was determined via ultraviolet-visible spectrophotometry (UV-Vis) with DMF as the reference solvent.

Compound: COc1ccc2c(c1)-c1nc(SCC(F)(F)F)n(C)c(=O)c1C(C)(C)C2 [CCG-211790, 9-Methoxy-3,5,5-trimethyl-2-((2,2,2-trifluoroethyl)thio)-5,6-dihydrobenzo[h]quinazolin-4(3H)-one]
- CCG-211790 concentration ([1]; pH 1, 0 week, acetonitrile/water): 11.1 µg/mL
- CCG-211790 concentration ([1]; pH 1, 2 weeks, acetonitrile/water): 9.4 ^* μg/mL
- CCG-211790 concentration ([1]; pH 1, 4 weeks, acetonitrile/water): 7.2 ^** μg/mL
- CCG-211790 concentration ([1]; pH 1, 12 weeks, acetonitrile/water): 2.1 ^** μg/mL
- chemical stability ([1]; pH 1, 37°C): degraded
- CCG-211790 concentration ([1]; pH 2, 0 week, acetonitrile/water): 11.6 µg/mL
- CCG-211790 concentration ([1]; pH 2, 2 weeks, acetonitrile/water): 11.9 µg/mL
- CCG-211790 concentration ([1]; pH 2, 4 weeks, acetonitrile/water): 11.2 ^* μg/mL
- CCG-211790 concentration ([1]; pH 2, 12 weeks, acetonitrile/water): 10.7 ^* μg/mL
- chemical stability ([1]; pH 2–10, 37°C): maintained most chemical stability
- CCG-211790 concentration ([1]; pH 3, 0 week, acetonitrile/PBS): 11.9 µg/mL
- CCG-211790 concentration ([1]; pH 3, 2 weeks, acetonitrile/PBS): 11.9 µg/mL
- CCG-211790 concentration ([1]; pH 3, 4 weeks, acetonitrile/PBS): 11.4 µg/mL
- CCG-211790 concentration ([1]; pH 3, 12 weeks, acetonitrile/PBS): 11.7 µg/mL
- CCG-211790 concentration ([1]; pH 4, 0 week, acetonitrile/PBS): 10.9 µg/mL
- CCG-211790 concentration ([1]; pH 4, 2 weeks, acetonitrile/PBS): 11.4 µg/mL
- CCG-211790 concentration ([1]; pH 4, 4 weeks, acetonitrile/PBS): 11.6 ^* μg/mL
- CCG-211790 concentration ([1]; pH 4, 12 weeks, acetonitrile/PBS): 11.3 µg/mL
- CCG-211790 concentration ([1]; pH 5, 0 week, acetonitrile/PBS): 11.0 µg/mL
- CCG-211790 concentration ([1]; pH 5, 2 weeks, acetonitrile/PBS): 11.3 ^* μg/mL
- CCG-211790 concentration ([1]; pH 5, 4 weeks, acetonitrile/PBS): 11.5 µg/mL
- CCG-211790 concentration ([1]; pH 5, 12 weeks, acetonitrile/PBS): 11.2 µg/mL
- CCG-211790 concentration ([1]; pH 6, 0 week, acetonitrile/PBS): 11.1 µg/mL
- CCG-211790 concentration ([1]; pH 6, 2 weeks, acetonitrile/PBS): 11.4 µg/mL
- CCG-211790 concentration ([1]; pH 6, 4 weeks, acetonitrile/PBS): 11.0 µg/mL
- CCG-211790 concentration ([1]; pH 6, 12 weeks, acetonitrile/PBS): 10.1 µg/mL
- CCG-211790 concentration ([1]; pH 7, 0 week, acetonitrile/PBS): 11.8 µg/mL
- CCG-211790 concentration ([1]; pH 7, 2 weeks, acetonitrile/PBS): 11.2 ^* μg/mL
- CCG-211790 concentration ([1]; pH 7, 4 weeks, acetonitrile/PBS): 10.9 ^* μg/mL
- CCG-211790 concentration ([1]; pH 7, 12 weeks, acetonitrile/PBS): 11.5 µg/mL
- CCG-211790 concentration ([1]; pH 8, 0 week, acetonitrile/PBS): 11.2 µg/mL
- CCG-211790 concentration ([1]; pH 8, 2 weeks, acetonitrile/PBS): 11.2 µg/mL
- CCG-211790 concentration ([1]; pH 8, 4 weeks, acetonitrile/PBS): 11.1 µg/mL
- CCG-211790 concentration ([1]; pH 8, 12 weeks, acetonitrile/PBS): 11.6 µg/mL
- CCG-211790 concentration ([1]; pH 9, 0 week, acetonitrile/PBS): 11.0 µg/mL
- CCG-211790 concentration ([1]; pH 9, 2 weeks, acetonitrile/PBS): 11.3 ^* μg/mL
- CCG-211790 concentration ([1]; pH 9, 4 weeks, acetonitrile/PBS): 11.2 µg/mL
- CCG-211790 concentration ([1]; pH 9, 12 weeks, acetonitrile/PBS): 10.5 µg/mL
- CCG-211790 concentration ([1]; pH 10, 0 week, acetonitrile/water): 10.4 µg/mL
- CCG-211790 concentration ([1]; pH 10, 2 weeks, acetonitrile/water): 11.0 ^* μg/mL
- CCG-211790 concentration ([1]; pH 10, 4 weeks, acetonitrile/water): 10.5 µg/mL
- CCG-211790 concentration ([1]; pH 10, 12 weeks, acetonitrile/water): 10.7 ^* μg/mL
- solubility at 24 h ([2]; oil or lipid, Canola oil, room temperature, read-out: Solubility): 24.7 mg/mL (≈ 64.3 mM)
- solubility at 24 h ([2]; oil or lipid, Coconut oil, room temperature, read-out: Solubility): 37.2 mg/mL (≈ 96.8 mM)
- solubility at 24 h ([2]; oil or lipid, Oleic acid, room temperature, read-out: Solubility): 24.1 mg/mL (≈ 62.7 mM)
- solubility at 24 h ([2]; oil or lipid, Olive oil, room temperature, read-out: Solubility): 24.3 mg/mL (≈ 63.2 mM)
- solubility at 24 h ([2]; oil or lipid, Peanut oil, room temperature, read-out: Solubility): 22.3 mg/mL (≈ 58 mM)
- solubility at 24 h ([2]; oil or lipid, Safflower oil, room temperature, read-out: Solubility): 22.7 mg/mL (≈ 59 mM)
- solubility at 24 h ([2]; oil or lipid, Sesame oil, room temperature, read-out: Solubility): 22.7 mg/mL (≈ 59 mM)
- solubility at 24 h ([2]; oil or lipid, Sunflower oil, room temperature, read-out: Solubility): 20 mg/mL (≈ 52 mM)
- solubility at 24 h ([2]; oil or lipid, range over the edible oils of Table 2, read-out: solubility in edible oils): 20 to 37.2 mg/mL (≈ 52 to 96.8 mM)
- solubility at 24 h ([2]; organic solvent or mixture, Acetonitrile, room temperature, read-out: Solubility): 57.6 mg/mL (≈ 150 mM)
- solubility at 24 h ([2]; organic solvent or mixture, Dimethyl sulfoxide, room temperature, read-out: Solubility): 66.7 mg/mL (≈ 174 mM)
- solubility at 24 h ([2]; organic solvent or mixture, Dimethylacetamide, room temperature, read-out: Solubility): 278 mg/mL (≈ 724 mM)
- solubility at 24 h ([2]; organic solvent or mixture, Dimethylformamide, room temperature, read-out: Solubility): 215 mg/mL (≈ 560 mM)
- solubility at 24 h ([2]; organic solvent or mixture, Ethanol, room temperature, read-out: Solubility): 18.2 mg/mL (≈ 47.3 mM)
- solubility at 24 h ([2]; organic solvent or mixture, Glycerin, room temperature, read-out: Solubility): 1.3 mg/mL (≈ 3.38 mM)
- solubility at 24 h ([2]; organic solvent or mixture, Isopropyl alcohol, room temperature, read-out: Solubility): 15.4 mg/mL (≈ 40.1 mM)
